Where a name gives a salt, the structure may show the parent alone. ± gives the standard deviation of the averaged measurements.
Test system: HeLa
Assay: cell viability (CellTiter-Glo) relative to median of lowest-dilution wells of all drugs (fraction); higher = more viable cells
Experimental: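 HeLa control and CRISPR DDX11 knockout cells were seeded in 384-well plates and incubated for 72 h with each of 64 […] drugs at six concentrations. Viability was read with CellTiter-Glo and normalised to the median of the lowest (6th) dilution wells of all drugs. Two biological replicates (BR1, BR2) are averaged; the concentration unit is not stated.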

[1] = drug concentration (unit not stated): 0.04, genotype: DDX11 knockout
[2] = drug concentration (unit not stated): 0.04, genotype: control (DDX11 wild type)
[3] = drug concentration (unit not stated): 0.12, genotype: DDX11 knockout
[4] = drug concentration (unit not stated): 0.12, genotype: control (DDX11 wild type)
[5] = drug concentration (unit not stated): 0.37, genotype: DDX11 knockout
[6] = drug concentration (unit not stated): 0.37, genotype: control (DDX11 wild type)
[7] = drug concentration (unit not stated): 1.11, genotype: DDX11 knockout
[8] = drug concentration (unit not stated): 1.11, genotype: control (DDX11 wild type)
[9] = drug concentration (unit not stated): 3.33, genotype: DDX11 knockout
[10] = drug concentration (unit not stated): 3.33, genotype: control (DDX11 wild type)
[11] = drug concentration (unit not stated): 10, genotype: DDX11 knockout
[12] = drug concentration (unit not stated): 10, genotype: control (DDX11 wild type)
[13] = drug concentration (unit not stated): 0.01, genotype: DDX11 knockout
[14] = drug concentration (unit not stated): 0.01, genotype: control (DDX11 wild type)

SMILES	cell viability [1]	cell viability [2]	cell viability [3]	cell viability [4]	cell viability [5]	cell viability [6]	cell viability [7]	cell viability [8]	cell viability [9]	cell viability [10]	cell viability [11]	cell viability [12]	cell viability [13]	cell viability [14]	cell viability (drug concentration (unit not stated): 30, genotype: DDX11 knockout)	cell viability (drug concentration (unit not stated): 30, genotype: control (DDX11 wild type))
Nc1ncn([C@H]2C[C@H](O)[C@@H](CO)O2)c(=O)n1 [Decitabine]	1.062 ± 0.0019	1.0513 ± 0.0006	1.01 ± 0.16	1.06 ± 0.019	1.03 ± 0.12	1.03 ± 0.043	0.973 ± 0.012	1.05 ± 0.054	0.975 ± 0.099	1.1 ± 0.097	0.867 ± 0.018	1.11 ± 0.086				
CCc1cnn2c(NCc3ccc[n+]([O-])c3)cc(N3CCCC[C@H]3CCO)nc12 [Dinaciclib]	0.189 ± 0.0066	0.232 ± 0.063	0.182 ± 0.011	0.239 ± 0.068	0.171 ± 0.019	0.264 ± 0.096	0.169 ± 0.0065	0.254 ± 0.097					0.119 ± 0.011	0.0976 ± 0.048		
COc1cccc2c1C(=O)c1c(O)c3c(c(O)c1C2=O)C[C@@](O)(C(=O)CO)C[C@@H]3O[C@H]1C[C@H](N)[C@H](O)[C@H](C)O1 [Doxorubicin (Adriamycin)]	0.923 ± 0.087	0.986 ± 0.0043	0.75 ± 0.18	0.96 ± 0.41	0.328 ± 0.4	0.679 ± 0.6	0.024 ± 0.0057	0.153 ± 0.2	0.0172 ± 0.0017	0.0179 ± 0.006			1.02 ± 0.03	0.9786 ± 0.0019		
COc1cccc2c1C(=O)c1c(O)c3c(c(O)c1C2=O)C[C@@](O)(C(=O)CO)C[C@@H]3O[C@H]1C[C@H](N)[C@@H](O)[C@H](C)O1 [Epirubicin Hydrochloride]	0.89 ± 0.23	0.967 ± 0.084	0.596 ± 0.37	0.902 ± 0.42	0.304 ± 0.39	0.55 ± 0.72	0.0326 ± 0.0056	0.164 ± 0.21	0.0161 ± 0.003	0.0225 ± 0.011			1.02 ± 0.021	1.04 ± 0.05		
COc1cc([C@@H]2c3cc4c(cc3[C@@H](O[C@@H]3O[C@@H]5CO[C@@H](C)O[C@H]5[C@H](O)[C@H]3O)[C@H]3COC(=O)[C@H]23)OCO4)cc(OC)c1O [Etoposide (VP-16)]	0.993 ± 0.062	0.992 ± 0.036	0.913 ± 0.1	0.985 ± 0.015	0.737 ± 0.18	0.978 ± 0.18	0.477 ± 0.24	0.842 ± 0.39	0.165 ± 0.14	0.35 ± 0.33	0.0411 ± 0.033	0.0423 ± 0.033				
O=c1[nH]c(=O)n([C@H]2C[C@H](O)[C@@H](CO)O2)cc1F [Floxuridine]	1 ± 0.05	1.1 ± 0.054	0.961 ± 0.15	0.998 ± 0.019	1.01 ± 0.13	0.952 ± 0.19	0.858 ± 0.19	0.874 ± 0.31	0.76 ± 0.43	0.786 ± 0.51			1.04 ± 0.047	1.2 ± 0.21		
Nc1nc(F)nc2c1ncn2[C@@H]1O[C@H](COP(=O)(O)O)[C@@H](O)[C@@H]1O [Fludarabine Phosphate (Fludara)]	1.0709 ± 0.00057	1.04 ± 0.014	1.03 ± 0.061	1.04 ± 0.012	1.02 ± 0.12	1.0367 ± 0.00023	1.08 ± 0.024	1.07 ± 0.029	1.06 ± 0.046	1.15 ± 0.028	1.07 ± 0.027	1.16 ± 0.12				
O=c1[nH]c(=O)n(C2CCCO2)cc1F (stereo unspecified) [Ftorafur (Tegafur)]	0.985 ± 0.063	0.953 ± 0.027	1 ± 0.057	1.01 ± 0.014	1.02 ± 0.016	1.01 ± 0.026	1 ± 0.016	1.01 ± 0.028	1.013 ± 0.0085	1.03 ± 0.014			0.991 ± 0.11	0.978 ± 0.05		
Nc1ccn([C@@H]2O[C@H](CO)[C@@H](O)C2(F)F)c(=O)n1 [Gemcitabine HCl (Gemzar)]	0.0446 ± 0.0085	0.0383 ± 0.016	0.0501 ± 0.015	0.0767 ± 0.053	0.0439 ± 0.017	0.065 ± 0.04	0.0472 ± 0.028	0.0514 ± 0.028					0.0596 ± 0.017	0.0573 ± 0.021		
CCS(=O)(=O)Nc1ccc2c(c1)/C(=C(/Nc1ccc(CN3CCCCC3)cc1)c1ccccc1)C(=O)N2 [Hesperadin]	0.981 ± 0.038	0.9913 ± 0.0085	0.85 ± 0.077	0.995 ± 0.26	0.79 ± 0.011	0.966 ± 0.21	0.696 ± 0.026	0.838 ± 0.12					1.038 ± 0.0037	1.02 ± 0.011		
NC(=O)c1ccc(I)c([N+](=O)[O-])c1 [Iniparib (BSI-201)]			1.01 ± 0.022	0.996 ± 0.031	1.06 ± 0.0055	0.981 ± 0.077	1.03 ± 0.045	0.951 ± 0.08	0.996 ± 0.028	0.969 ± 0.12	1.02 ± 0.062	0.93 ± 0.17			0.839 ± 0.094	0.92546 ± 0.00092

Reference: the supplement of paper PMC8092582
